Measured values from ChEMBL document CHEMBL5465560, “Selectivity Literature for EUbOPEN Chemogenomic Library” (2024).

Columns and labels:
[1] = target: Phosphatidylinositol 4-phosphate 3-kinase C2 domain-containing subunit beta (Homo sapiens) (UniProt O00750); experiment: Selectivity interaction (Kinase panel (Invitrogen)) EUB0000639a PIK3C2B; conditions: at 200 nM
[2] = target: Calcium/calmodulin-dependent protein kinase type 1D (Homo sapiens) (UniProt Q8IU85); experiment: Selectivity interaction (ProQinase) EUB0000171b CAMK1D
[3] = test system: Proto-oncogene tyrosine-protein kinase receptor Ret (Homo sapiens), P07949 [V804L]; experiment: (§1) Selectivity interaction (KinomeScan (DiscoverX)) EUB0000695a RET; conditions: at 100 nM
[4] = test system: Proto-oncogene tyrosine-protein kinase receptor Ret (Homo sapiens), P07949 [V804M]; experiment: as §1; conditions: at 100 nM
[5] = test system: Proto-oncogene tyrosine-protein kinase receptor Ret (Homo sapiens), P07949 [M918T]; experiment: as §1; conditions: at 100 nM
[6] = target: Proto-oncogene tyrosine-protein kinase receptor Ret (Homo sapiens, UniProt P07949); experiment: as §1; conditions: at 100 nM
[7] = target: Non-receptor tyrosine-protein kinase TYK2 (Homo sapiens, UniProt P29597); experiment: Selectivity interaction (KinomeScan (DiscoverX)) EUB0000595a TYK2; conditions: at 10 µM
[8] = target: RAC-alpha serine/threonine-protein kinase (Homo sapiens, UniProt P31749); experiment: Selectivity interaction (Kinase screening (Nanosyn)) EUB0000604a AKT1
[9] = target: T1, Serine/threonine-protein kinase 36 (Homo sapiens) (UniProt Q9NRP7); experiment: Selectivity interaction (Ambit KINOMEscan and KiNATiv profiling in Jurkat cells) EUB0000090b STK36; format: cell-based; conditions: at 1 µM
T1 sequence (whole entry): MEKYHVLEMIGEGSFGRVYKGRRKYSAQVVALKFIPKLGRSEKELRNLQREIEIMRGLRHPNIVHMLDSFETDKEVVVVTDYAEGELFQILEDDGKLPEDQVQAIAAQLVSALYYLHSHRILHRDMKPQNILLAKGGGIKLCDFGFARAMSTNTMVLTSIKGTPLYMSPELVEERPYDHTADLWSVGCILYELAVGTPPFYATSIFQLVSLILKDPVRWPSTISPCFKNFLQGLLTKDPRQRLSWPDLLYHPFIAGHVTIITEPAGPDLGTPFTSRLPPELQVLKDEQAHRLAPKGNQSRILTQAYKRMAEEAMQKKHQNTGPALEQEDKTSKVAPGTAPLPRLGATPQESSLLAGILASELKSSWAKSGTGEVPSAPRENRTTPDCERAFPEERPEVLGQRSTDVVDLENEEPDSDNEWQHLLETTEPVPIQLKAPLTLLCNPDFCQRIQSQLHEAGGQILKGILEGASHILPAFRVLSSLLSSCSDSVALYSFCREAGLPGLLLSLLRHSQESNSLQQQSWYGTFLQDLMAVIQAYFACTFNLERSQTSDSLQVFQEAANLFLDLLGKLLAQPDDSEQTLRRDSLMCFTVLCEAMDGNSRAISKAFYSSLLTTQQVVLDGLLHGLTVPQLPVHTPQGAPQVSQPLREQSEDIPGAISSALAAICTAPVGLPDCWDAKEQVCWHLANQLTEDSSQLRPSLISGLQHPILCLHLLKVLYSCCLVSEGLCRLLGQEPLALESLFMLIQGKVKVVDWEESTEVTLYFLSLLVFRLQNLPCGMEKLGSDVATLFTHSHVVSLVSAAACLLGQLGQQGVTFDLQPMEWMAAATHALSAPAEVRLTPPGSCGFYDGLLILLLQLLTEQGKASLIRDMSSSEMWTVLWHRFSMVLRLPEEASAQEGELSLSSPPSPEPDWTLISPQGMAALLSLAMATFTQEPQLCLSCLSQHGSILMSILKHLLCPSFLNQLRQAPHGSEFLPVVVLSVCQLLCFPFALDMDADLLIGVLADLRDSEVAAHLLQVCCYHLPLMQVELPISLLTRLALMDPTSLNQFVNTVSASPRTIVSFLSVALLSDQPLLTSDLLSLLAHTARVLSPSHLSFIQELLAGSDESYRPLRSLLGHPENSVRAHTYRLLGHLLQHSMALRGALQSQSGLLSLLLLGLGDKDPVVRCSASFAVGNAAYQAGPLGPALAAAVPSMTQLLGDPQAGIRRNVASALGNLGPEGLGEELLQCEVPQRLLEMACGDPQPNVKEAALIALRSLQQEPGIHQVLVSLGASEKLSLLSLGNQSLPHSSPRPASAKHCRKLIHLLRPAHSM

[10] = target: Phosphatidylinositol 4-phosphate 3-kinase C2 domain-containing subunit beta (Homo sapiens) (UniProt O00750); experiment: Selectivity interaction (KinomeScan (DiscoverX)) EUB0000655a PIK3C2B; conditions: at 10 µM
[11] = target: T2, Mitogen-activated protein kinase kinase kinase 7 (Homo sapiens) (UniProt O43318); conditions: at 10 µM
T2 sequence (whole entry): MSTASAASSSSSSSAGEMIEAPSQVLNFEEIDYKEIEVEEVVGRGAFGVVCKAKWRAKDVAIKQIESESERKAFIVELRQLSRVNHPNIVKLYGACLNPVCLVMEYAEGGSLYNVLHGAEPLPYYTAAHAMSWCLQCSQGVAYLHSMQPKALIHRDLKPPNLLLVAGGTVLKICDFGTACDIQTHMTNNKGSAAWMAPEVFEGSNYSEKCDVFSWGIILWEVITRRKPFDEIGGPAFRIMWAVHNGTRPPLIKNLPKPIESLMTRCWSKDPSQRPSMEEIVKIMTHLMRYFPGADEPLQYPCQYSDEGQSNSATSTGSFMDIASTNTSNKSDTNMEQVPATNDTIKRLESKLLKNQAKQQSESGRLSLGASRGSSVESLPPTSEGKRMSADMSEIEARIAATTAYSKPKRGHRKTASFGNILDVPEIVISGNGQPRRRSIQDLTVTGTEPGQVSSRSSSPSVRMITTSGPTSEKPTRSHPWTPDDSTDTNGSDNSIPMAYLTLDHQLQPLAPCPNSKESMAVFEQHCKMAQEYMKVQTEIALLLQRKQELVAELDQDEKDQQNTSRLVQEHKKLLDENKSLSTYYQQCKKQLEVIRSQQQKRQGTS

Chain of Phosphatidylinositol 4-phosphate 3-kinase C2 domain-containing subunit beta (Homo sapiens) (O00750 whole entry, the tested form may be a part): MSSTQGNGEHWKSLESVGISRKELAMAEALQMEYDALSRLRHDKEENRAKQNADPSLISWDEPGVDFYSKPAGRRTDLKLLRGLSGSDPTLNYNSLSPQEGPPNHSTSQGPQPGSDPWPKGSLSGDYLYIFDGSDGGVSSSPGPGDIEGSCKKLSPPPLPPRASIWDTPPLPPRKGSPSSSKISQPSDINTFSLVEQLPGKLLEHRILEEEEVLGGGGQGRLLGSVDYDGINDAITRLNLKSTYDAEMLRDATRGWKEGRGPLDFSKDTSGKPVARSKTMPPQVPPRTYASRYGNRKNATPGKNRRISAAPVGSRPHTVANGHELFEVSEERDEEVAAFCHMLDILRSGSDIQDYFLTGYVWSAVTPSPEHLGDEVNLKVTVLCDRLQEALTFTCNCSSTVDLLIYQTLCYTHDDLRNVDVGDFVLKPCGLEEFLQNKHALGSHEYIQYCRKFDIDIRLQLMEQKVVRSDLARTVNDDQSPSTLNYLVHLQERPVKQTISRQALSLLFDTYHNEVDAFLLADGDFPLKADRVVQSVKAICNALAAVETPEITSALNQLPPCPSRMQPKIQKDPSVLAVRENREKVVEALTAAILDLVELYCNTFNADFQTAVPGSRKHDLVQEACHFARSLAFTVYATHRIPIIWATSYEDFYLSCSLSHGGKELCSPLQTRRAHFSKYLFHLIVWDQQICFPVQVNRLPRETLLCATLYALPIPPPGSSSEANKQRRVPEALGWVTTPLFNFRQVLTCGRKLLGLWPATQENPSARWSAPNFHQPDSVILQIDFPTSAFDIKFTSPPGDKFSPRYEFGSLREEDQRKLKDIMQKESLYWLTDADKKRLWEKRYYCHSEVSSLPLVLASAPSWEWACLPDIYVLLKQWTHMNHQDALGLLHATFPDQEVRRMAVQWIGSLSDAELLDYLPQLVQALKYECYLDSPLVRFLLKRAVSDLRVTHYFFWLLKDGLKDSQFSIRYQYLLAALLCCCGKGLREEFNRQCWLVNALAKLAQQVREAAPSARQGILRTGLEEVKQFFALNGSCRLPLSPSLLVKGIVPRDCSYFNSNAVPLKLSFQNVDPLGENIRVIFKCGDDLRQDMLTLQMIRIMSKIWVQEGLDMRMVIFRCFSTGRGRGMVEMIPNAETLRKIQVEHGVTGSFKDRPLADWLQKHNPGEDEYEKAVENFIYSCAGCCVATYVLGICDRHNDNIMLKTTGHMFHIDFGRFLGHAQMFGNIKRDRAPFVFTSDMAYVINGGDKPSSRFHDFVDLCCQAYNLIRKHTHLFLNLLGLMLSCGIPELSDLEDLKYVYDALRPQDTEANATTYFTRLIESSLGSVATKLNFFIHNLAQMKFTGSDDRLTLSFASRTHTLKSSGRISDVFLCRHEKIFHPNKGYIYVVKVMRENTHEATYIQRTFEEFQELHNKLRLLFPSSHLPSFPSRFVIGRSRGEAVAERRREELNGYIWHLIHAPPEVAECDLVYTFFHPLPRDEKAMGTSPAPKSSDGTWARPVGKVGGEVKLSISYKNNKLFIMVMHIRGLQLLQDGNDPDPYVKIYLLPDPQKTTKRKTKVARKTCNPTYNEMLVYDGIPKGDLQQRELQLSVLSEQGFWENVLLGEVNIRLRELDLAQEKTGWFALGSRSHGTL
Chain of Calcium/calmodulin-dependent protein kinase type 1D (Homo sapiens) (Q8IU85 whole entry, looked up): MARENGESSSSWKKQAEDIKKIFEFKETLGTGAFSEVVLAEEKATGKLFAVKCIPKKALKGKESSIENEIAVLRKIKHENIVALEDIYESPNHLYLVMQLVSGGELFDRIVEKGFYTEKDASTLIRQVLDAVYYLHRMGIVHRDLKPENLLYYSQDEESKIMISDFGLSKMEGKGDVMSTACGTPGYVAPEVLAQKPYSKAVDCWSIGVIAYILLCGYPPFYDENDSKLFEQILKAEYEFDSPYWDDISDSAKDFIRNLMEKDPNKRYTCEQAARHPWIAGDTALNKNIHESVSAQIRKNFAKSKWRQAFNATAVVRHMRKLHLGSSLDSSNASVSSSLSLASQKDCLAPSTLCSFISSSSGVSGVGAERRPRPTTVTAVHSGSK
Chain of RAC-alpha serine/threonine-protein kinase (P31749 whole entry): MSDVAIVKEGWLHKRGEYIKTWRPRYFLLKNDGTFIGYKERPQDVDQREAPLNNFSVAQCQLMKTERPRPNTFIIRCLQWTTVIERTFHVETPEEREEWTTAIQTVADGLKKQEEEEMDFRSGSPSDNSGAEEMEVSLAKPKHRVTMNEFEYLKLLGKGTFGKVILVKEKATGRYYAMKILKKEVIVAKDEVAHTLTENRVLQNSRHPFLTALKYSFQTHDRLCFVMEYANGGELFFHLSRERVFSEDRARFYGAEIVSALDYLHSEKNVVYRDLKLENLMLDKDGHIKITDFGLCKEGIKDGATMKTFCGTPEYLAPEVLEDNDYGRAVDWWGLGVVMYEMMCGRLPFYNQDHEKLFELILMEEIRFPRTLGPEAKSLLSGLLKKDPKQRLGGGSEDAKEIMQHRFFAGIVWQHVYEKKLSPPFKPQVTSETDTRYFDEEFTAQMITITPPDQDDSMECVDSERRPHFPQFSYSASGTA
Chain of Non-receptor tyrosine-protein kinase TYK2 (P29597 whole entry): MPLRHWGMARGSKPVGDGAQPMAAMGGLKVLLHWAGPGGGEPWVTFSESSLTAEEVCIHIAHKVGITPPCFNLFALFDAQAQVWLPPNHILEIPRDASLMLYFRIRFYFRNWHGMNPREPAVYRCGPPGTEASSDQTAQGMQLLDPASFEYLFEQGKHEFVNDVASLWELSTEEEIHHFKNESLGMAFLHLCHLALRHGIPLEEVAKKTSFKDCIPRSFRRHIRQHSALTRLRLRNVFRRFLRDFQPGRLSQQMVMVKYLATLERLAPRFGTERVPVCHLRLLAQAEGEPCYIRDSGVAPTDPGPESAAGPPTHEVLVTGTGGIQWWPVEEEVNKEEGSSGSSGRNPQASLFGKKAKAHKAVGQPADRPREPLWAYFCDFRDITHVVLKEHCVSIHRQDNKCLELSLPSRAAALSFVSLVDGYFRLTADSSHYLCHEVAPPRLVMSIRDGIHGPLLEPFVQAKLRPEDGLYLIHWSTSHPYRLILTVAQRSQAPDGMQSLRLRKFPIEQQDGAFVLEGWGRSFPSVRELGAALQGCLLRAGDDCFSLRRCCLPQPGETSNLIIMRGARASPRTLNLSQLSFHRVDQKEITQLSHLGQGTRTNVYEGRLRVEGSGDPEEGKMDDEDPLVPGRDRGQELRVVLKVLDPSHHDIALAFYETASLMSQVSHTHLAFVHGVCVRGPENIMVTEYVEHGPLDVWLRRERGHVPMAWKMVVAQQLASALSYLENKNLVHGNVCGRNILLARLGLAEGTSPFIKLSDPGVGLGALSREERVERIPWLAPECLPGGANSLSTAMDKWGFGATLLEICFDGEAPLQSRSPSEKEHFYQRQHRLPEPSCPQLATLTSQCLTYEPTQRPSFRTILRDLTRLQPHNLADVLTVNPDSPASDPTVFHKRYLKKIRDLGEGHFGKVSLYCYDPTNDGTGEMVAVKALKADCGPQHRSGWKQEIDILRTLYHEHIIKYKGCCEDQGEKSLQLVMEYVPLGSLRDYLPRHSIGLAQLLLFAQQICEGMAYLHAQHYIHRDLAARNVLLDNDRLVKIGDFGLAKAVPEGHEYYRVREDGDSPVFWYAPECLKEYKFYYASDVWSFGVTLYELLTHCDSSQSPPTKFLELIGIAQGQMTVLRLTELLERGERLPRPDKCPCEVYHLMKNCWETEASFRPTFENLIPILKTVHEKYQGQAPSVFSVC
Chain of Proto-oncogene tyrosine-protein kinase receptor Ret (P07949 whole entry): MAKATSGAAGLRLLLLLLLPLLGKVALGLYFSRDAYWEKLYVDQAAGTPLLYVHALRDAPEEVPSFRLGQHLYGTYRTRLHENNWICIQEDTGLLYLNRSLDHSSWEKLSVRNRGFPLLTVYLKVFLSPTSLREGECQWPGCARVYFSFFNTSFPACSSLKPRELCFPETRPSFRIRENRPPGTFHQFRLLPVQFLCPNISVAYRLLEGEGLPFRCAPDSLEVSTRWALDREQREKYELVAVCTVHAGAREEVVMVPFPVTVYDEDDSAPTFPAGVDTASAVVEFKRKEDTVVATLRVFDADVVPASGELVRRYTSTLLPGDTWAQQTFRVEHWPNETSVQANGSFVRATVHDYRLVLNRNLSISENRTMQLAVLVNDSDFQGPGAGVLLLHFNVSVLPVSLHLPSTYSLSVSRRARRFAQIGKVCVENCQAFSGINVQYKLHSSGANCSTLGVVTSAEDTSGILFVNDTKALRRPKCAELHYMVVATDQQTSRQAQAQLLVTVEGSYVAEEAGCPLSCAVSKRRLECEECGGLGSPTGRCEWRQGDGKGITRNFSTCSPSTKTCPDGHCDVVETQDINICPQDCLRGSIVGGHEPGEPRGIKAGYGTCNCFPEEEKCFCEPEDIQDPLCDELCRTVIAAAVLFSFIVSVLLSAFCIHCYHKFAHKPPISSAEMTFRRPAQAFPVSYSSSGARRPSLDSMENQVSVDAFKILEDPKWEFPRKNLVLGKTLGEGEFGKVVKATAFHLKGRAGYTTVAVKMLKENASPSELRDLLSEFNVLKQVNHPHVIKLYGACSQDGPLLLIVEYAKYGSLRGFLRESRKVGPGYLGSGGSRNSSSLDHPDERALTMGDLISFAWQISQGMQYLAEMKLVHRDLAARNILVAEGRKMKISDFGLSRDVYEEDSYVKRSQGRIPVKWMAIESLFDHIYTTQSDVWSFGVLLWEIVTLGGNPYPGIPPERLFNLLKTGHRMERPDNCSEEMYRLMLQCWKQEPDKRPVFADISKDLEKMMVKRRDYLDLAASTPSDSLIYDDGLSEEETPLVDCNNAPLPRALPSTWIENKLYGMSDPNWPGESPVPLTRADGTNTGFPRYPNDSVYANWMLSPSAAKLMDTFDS
Chain of Proto-oncogene tyrosine-protein kinase receptor Ret (Homo sapiens), P07949 [V804M] (P07949 whole entry V804M): as the sequence (P07949 whole entry) above, with V804M counted along it
Chain of Proto-oncogene tyrosine-protein kinase receptor Ret (Homo sapiens), P07949 [V804L] (P07949 whole entry V804L): as the sequence (P07949 whole entry) above, with V804L counted along it
Chain of Proto-oncogene tyrosine-protein kinase receptor Ret (Homo sapiens), P07949 [M918T] (P07949 whole entry M918T): as the sequence (P07949 whole entry) above, with M918T counted along it

CC[C@@H]1[C@H](F)C(=O)N[C@@H]1COc1nccc2cc(C(N)=O)c(OC)cc12 [ZIMLOVISERTIB]
% of inhibition [1]: 7.24%

C=CC(=O)Nc1cccc(C(=O)Nc2ccc(Nc3cc(-c4[nH]c(SC)nc4C)ccn3)cc2)c1
% of control ([2]; at 1 µM): 90%
% of control ([2]; at 5 µM): 75%

Cc1cc(F)c(C(=O)Nc2cccc(-c3nncn3C(C)C)n2)cc1-n1cnc(C2CC2)c1
% of control [3]: 100%
% of control [4]: 98%
% of control [5]: 100%
% of control [6]: 96%

COCC(=O)NC/C=C/c1ccc2ncnc(Nc3ccc(Oc4ccc(C)nc4)c(C)c3)c2c1 [CP-724714]
% of control [7]: 100%

Cc1cnc(Nc2ccc(F)cc2Cl)nc1-c1c[nH]c(C(=O)N[C@H](CO)c2cccc(Cl)c2)c1
% of inhibition [8]: 0%

CN(C)C/C=C/C(=O)Nc1ccc(C(=O)N2CCCC(Nc3ncc(Cl)c(-c4c[nH]c5ccccc45)n3)C2)cc1 (configuration not stated)
% of control [9]: 85%

CN(C)CCOc1ccc(-c2nc(-c3ccncc3)c(-c3ccc4c(c3)CC/C4=N\O)[nH]2)cc1
% of control [10]: 64%

Cc1cc([C@@H](C)Nc2ccccc2C(=O)O)c2nc(N3CCOCC3)cc(=O)n2c1 [AZD-6482]
% of control [11]: 89%
